Read-outs that look alike come from different tables or passages of the source.
Tests used:
[1] = tested on: acetic acid induced writhing; test: Acetic acid induced Writhing Test (IWRAC); type: in vivo; conditions: mouse; for Analgesic effect in test model IWRAC: 6 mg/kg p.o.; for ED50: po, read-out: Analgesic effect in test model IWRAC, ED50
Procedure: (§1) The peripheral analgesic effect was shown in the model of the Writhing Test (IWRAC) and in the model of the Randall-Selitto inflammation pain test (IRS).
^a IWRAC = Acetic acid induced Writhing Test. Data in % refer to a
dose of 6 mg/kg p.o. (mouse). The ED50 values are given in mg/kg.

inflammation pain = test: Randall-Selitto inflammation pain test (IRS); type: in vivo; conditions: rat; for Analgesic effect in test model IRS: 10 mg/kg p.o.; for ED50: po, read-out: Analgesic effect in test model IRS, ED50
Procedure: as §1
^b IRS = RandallSelitto inflammation pain test. Data in % refer to a
dose or 10 mg/kg p.o. (rat). The ED50 values are given in mg/kg.

right anterior free wall = test: Antiarrhythmic properties in rabbit cardiac preparations, right anterior free wall; conditions: Oryctolagus cuniculus, 1 h, 60 minutes, read-out: Electrical threshold, change in percentage from control
Procedure: (§2) The antiarrhythmic effect was tested by the following experimental procedure:
(§3) Twenty young rabbits of mixed breed and either sex, weighing 1475±75 g (mean±S.E.), were used. The animals were sacrificed by a blow on the head, their heart was isolated and the left atrium, a strip of the anterior free wall of the right ventricle, as well as one of the papillary muscles of the right ventricle were dissected and pinned to the bottom (`non-toxic` rubber) of a thermostated organic bath, containing modified Locke's solution. The composition of the solution was the following: Na^+ 140; K^+ 5.63; Ca^2+ 2.17; glucose 11, HCO3 25; CL 125; total 309 mmol/l, pH 7.4. Continuous stirring and oxygenation of the solution were maintained by the bubbling of a mixture of 95% O2 and 5% CO2. The temperature of the organ bath was kept at 32° C. […] During the experiments the following electro-physiological parameters were determined: electrical threshold, effective refractory period and conduction time. The effective refractory period (i.e. the least interval between two successive electro-mechanical responses) was measured by applying a threefold-threshold test stimulus (1 msec, square waves) delivered from a DISA Multistim at various times following the pacing impulse. Conduction time was measured on an oscilloscope (Tektronis 2230) as a distance (i.e. time) between the artifact of the pacing stimulus and the appearance of the subsequent surface potential recorded via bipolar platinum electrodes. The auxotonically measured contractility (maximum contractile force) was also followed (papillary muscle, left atrium).
(§4) After a 60 min equilibrium in the control solution, the preparations were exposed to 10 μM of the test substance for a period of 60 min. Except for the effect on the effective refractory periods (determined at the 30th and 60th min only) all the other parameters were measured in every 15th min, i.e. four times in the presence of a given concentration of the compound examined. […]

[2] = tested on: right ventricular papillary muscle; test: Antiarrhythmic properties in rabbit cardiac preparations, right ventricular papillary muscle; conditions: Oryctolagus cuniculus, 1 h, 60 minutes; for activation at 10 µM: right ventricular papillary muscle; for inhibition at 10 µM: papillary muscle, read-out: Contractility, change in percentage from control
Procedure: as §2
(§5) Twenty young rabbits of mixed breed and either sex, weighing 1475±75 g (mean±S.E.), were used. The animals were sacrificed by a blow on the head, their heart was isolated and the left atrium, a strip of the anterior free wall of the right ventricle, as well as one of the papillary muscles of the right ventricle were dissected and pinned to the bottom (`non-toxic` rubber) of a thermostated organic bath, containing modified Locke's solution. The composition of the solution was the following: Na^+ 140; K^+ 5.63; Ca^2+ 2.17; glucose 11, HCO3 25; CL 125; total 309 mmol/l, pH 7.4. Continuous stirring and oxygenation of the solution were maintained by the bubbling of a mixture of 95% O2 and 5% CO2. The temperature of the organ bath was kept at 32° C. The isolated left atrium, papillary muscle and the strip prepared from the anterior free wall of the right ventricle were electrically paced by rectangular electric impulses of 1 msec duration, twice-threshold intensity and a 100 per min frequency. During the experiments the following electro-physiological parameters were determined: electrical threshold, effective refractory period and conduction time. The effective refractory period (i.e. the least interval between two successive electro-mechanical responses) was measured by applying a threefold-threshold test stimulus (1 msec, square waves) delivered from a DISA Multistim at various times following the pacing impulse. Conduction time was measured on an oscilloscope (Tektronis 2230) as a distance (i.e. time) between the artifact of the pacing stimulus and the appearance of the subsequent surface potential recorded via bipolar platinum electrodes. The auxotonically measured contractility (maximum contractile force) was also followed (papillary muscle, left atrium).
(§6) After a 60 min equilibrium in the control solution, the preparations were exposed to 10 μM of the test substance for a period of 60 min. Except for the effect on the effective refractory periods (determined at the 30th and 60th min only) all the other parameters were measured in every 15th min, i.e. four times in the presence of a given concentration of the compound examined.
(§7) The values given in the Tables and Figures are means ±S.E. The effect of compounds on the various parameters was estimated statistically by the t-test (Student-Welch); P values<0.05 were regarded as significant.
(§8) Antiarrhythmic properties in rabbit cardiac
(§9) incubation time with drugs 60 minutes
(§10) change in percentage from control

left atrial myocardium = test: Antiarrhythmic properties in rabbit cardiac preparations, left atrial myocardium; conditions: Oryctolagus cuniculus, 1 h, 60 minutes; for activation at 10 µM: left atrial myocardium; for inhibition at 10 µM: left auricle, read-out: Contractility, change in percentage from control
Procedure: as §2, §5, §6, §7, §8, §9, §10

[3] = tested on: right anteior papillary muscle; test: Antiarrhythmic properties in rabbit cardiac preparations, right anterior papillary muscle (conduction time); conditions: Oryctolagus cuniculus, 1 h, 60 minutes, read-out: Conduction time, change in percentage from control
Procedure: as §2, §3, §4

[4] = read-out: Effective refractory period, change in percentage from control
[5] = read-out: Electrical threshold, change in percentage from control
[6] = read-out: Conduction time, change in percentage from control

CCOC(=O)CCN1CCC(n2nc(Cc3ccc(Cl)cc3)c3ccccc3c2=O)CC1
Analgesic effect in test model IWRAC [1]: 67% | Analgesic effect in test model IRS (inflammation pain): 50%

CN1CCCC(n2nc(Cc3ccc(Cl)cc3)c3ccccc3c2=O)CC1 (centres unmarked) [Azelastine]
activation at 10 µM (right anterior free wall): 29% | activation at 10 µM [2, 4]: 9% | activation at 10 µM [2, 5]: 22% | activation at 10 µM (left atrial myocardium; [6]): 40% | activation at 10 µM (left atrial myocardium; [4]): 12% | activation at 10 µM (left atrial myocardium; [5]): 25% | activation at 10 µM [3]: 50%

O=c1c2ccccc2c(Cc2ccccc2)nn1C1CN2CCC1CC2 (centres unmarked) [Phenyl 3-Chinuclidyl]
ED50 [1]: 3 mg/kg | ED50 (inflammation pain): 1.5 mg/kg

O=c1c2ccccc2c(Cc2ccc(F)cc2)nn1C1CCCN(Cc2ccccc2)CC1 (centres unmarked)
Analgesic effect in test model IWRAC [1]: 75% | Analgesic effect in test model IRS (inflammation pain): 53%

O=c1c2ccccc2c(Cc2ccc(F)cc2)nn1C1CN2CCC1CC2 (centres unmarked) [4-F-Phenyl 3-Chinuclidyl]
ED50 [1]: 4.6 mg/kg | ED50 (inflammation pain): 1.5 mg/kg

O=c1c2ccccc2c(Cc2ccccc2Cl)nn1C1CCCN(CCc2ccccc2)CC1 (centres unmarked)
ED50 [1]: 4.1 mg/kg | ED50 (inflammation pain): 4.7 mg/kg

O=c1c2ccccc2c(Cc2ccc(F)cc2)nn1C1CCCN(CCc2ccccc2)CC1 (centres unmarked)
ED50 [1]: 2.7 mg/kg | Analgesic effect in test model IRS (inflammation pain): 54%

O=c1c2ccccc2c(Cc2ccc(F)cc2)nn1C1CCN(CCCc2ccc(F)cc2)CC1
Analgesic effect in test model IWRAC [1]: 67% | Analgesic effect in test model IRS (inflammation pain): 52%

O=c1c2ccccc2c(Cc2ccc(Cl)cc2)nn1C1CCCN(CCc2ccccc2)CC1 (centres unmarked)
Analgesic effect in test model IWRAC [1]: 91% | Analgesic effect in test model IRS (inflammation pain): 77%

O=c1c2ccccc2c(Cc2ccc(F)cc2)nn1C1CCN(CCCc2ccccc2)CC1
Analgesic effect in test model IWRAC [1]: 77% | Analgesic effect in test model IRS (inflammation pain): 67%

O=c1c2ccccc2c(Cc2ccco2)nn1C1CCCN(CCc2ccccc2)CC1 (centres unmarked)
Analgesic effect in test model IRS (inflammation pain): 40%

CN1[C@@H]2CC[C@H]1C[C@@H](OC(=O)c1c[nH]c3ccccc13)C2 [ICS-205930]
activation at 10 µM (right anterior free wall): 51% | inhibition at 10 µM [2]: 29% | activation at 10 µM [2, 4]: 21% | activation at 10 µM [2, 5]: 34% | activation at 10 µM (left atrial myocardium; [6]): 57% | activation at 10 µM (left atrial myocardium; [4]): 26% | activation at 10 µM (left atrial myocardium; [5]): 51% | inhibition at 10 µM (left atrial myocardium): 33% | activation at 10 µM [3]: 111%

O=c1c2ccccc2c(Cc2ccc(F)cc2)nn1C1CCCN(CCc2ccccc2)CC1 (racemic) [D-18024]
activation at 10 µM (right anterior free wall): -1% | inhibition at 10 µM [2]: 48% | activation at 10 µM [2, 4]: 7% | activation at 10 µM [2, 5]: 29% | activation at 10 µM (left atrial myocardium; [6]): 91% | activation at 10 µM (left atrial myocardium; [4]): 66% | activation at 10 µM (left atrial myocardium; [5]): 12% | inhibition at 10 µM (left atrial myocardium): 39% | activation at 10 µM [3]: 103%
